Molecular target: T1, Androgen receptor (AR) (Homo sapiens, UniProt P10275)
T1 construct: expressed in transfected cells; host or cells: HEK293T (AR+ARE/Luc)
T1 sequence (P10275 1-920): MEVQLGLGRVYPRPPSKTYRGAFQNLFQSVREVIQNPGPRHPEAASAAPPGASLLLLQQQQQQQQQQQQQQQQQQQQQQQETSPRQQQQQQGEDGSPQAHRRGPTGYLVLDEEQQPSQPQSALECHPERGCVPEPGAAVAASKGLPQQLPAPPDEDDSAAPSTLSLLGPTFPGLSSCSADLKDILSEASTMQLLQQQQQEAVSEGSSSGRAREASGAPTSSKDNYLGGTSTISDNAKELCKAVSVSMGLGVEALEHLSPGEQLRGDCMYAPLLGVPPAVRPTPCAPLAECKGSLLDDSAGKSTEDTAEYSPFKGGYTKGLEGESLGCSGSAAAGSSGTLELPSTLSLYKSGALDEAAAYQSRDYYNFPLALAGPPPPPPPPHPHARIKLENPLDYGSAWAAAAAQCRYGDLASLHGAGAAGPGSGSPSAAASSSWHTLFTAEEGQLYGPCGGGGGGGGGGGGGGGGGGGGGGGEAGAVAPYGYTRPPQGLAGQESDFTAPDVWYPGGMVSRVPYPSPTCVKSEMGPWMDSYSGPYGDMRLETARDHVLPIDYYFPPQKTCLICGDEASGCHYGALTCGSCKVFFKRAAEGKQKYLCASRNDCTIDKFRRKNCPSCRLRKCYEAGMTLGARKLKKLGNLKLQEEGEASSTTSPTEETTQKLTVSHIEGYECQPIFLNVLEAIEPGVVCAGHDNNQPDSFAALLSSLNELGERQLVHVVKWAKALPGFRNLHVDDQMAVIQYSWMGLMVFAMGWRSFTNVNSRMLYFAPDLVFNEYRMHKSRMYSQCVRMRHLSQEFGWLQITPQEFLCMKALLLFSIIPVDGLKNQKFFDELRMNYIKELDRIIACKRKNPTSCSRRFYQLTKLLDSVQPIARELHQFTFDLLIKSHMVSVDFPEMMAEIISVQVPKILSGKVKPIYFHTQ
Assay: Androgen receptor (AR) reporter gene assay (luciferase)
Assay type: cell-based
Settings: AR+ARE/Luc HEK293T cells, stimulated with 11-KDHT, 24h incubation, Bright-Lite luminescence; read-out: HEK293 Luc IC50
Protocol: Androgen receptor (AR) reporter gene assay
Experimental reagents: 11-Ketodihydrotestosterone (11-KDHT) was purchased from MCE (cat.HY-135794); Enzalutamide (MDV3100) was purchased from Selleck (cat.S1250); Bright-Lite Luciferase Assay kit was purchased from Vazyme (cat.DD1204-01);
• 1. dissolve the described compounds in 100% DMSO at a final concentration of 10 mM. 100 nL each of 400X compound to be tested and 400X 11-KDHT (40 nM) were added to a 384-well assay plate with Echo, followed by 20 µL of complete medium, and centrifuged at 1000 rpm for 1 min, and oscillated for 20-30 min at room temperature. • 2. 20 µL of AR+ARE/Luc HEK293T cells (10,000 cells/well) were inoculated into the assay plate containing the compounds and 11-KDHT, and centrifuged at 1000 rpm for 1 min. The assay plate was incubated in a 37 °C CO2 incubator for 24h. • 3. 40 µL of Bright-Lite assay reagent was transferred to each well of the assay plate, centrifuged at 1000 rpm for 1 min, and shaken for 2 min at room temperature protected from light. Luminescence values (RLU) were measured using Envision. Based on the results, the IC50 values of the compounds described were calculated. Table 1 HEK293-Luc% inhibition IC50 of representative compounds

SMILES | IC50 [nM]
Cn1ccc(NC2CCCc3c2cc(C#N)c(OCCCl)c3Cl)cc1=O (centres unmarked) [HANT-261] | 500 to 1000
N#Cc1ccc(NC2CCCc3c2cc(C#N)c(OCCCl)c3Cl)cn1 (centres unmarked) [HANT-262] | 1 to 500
CNC(=O)c1ccc(NC2CCCc3c2cc(C#N)c(OCCCl)c3Cl)cn1 (centres unmarked) [HANT-263] | 1 to 500
N#Cc1cc2c(c(Cl)c1OCCCl)CCCC2NC1CCCOC1 (centres unmarked) [HANT-264] | > 2000
COc1cncc(NC2CCCc3c2cc(C#N)c(OCCCl)c3Cl)c1 (centres unmarked) [HANT-266] | 1 to 500
N#Cc1cc2c(c(Cl)c1OCCCl)CCCC2Oc1cccnc1 (centres unmarked) [HANT-267] | 1 to 500
CCCOc1c(C#N)cc2c(c1Cl)CCCC2Nc1ccc2[nH]ncc2c1 (centres unmarked) [HANT-268, 8-((1H-indazol-5-yl)amino)-4-chloro-3-propoxy-5,6,7,8-tetrahydronaphthalene-2-carbonitrile] | 1 to 500
CCOc1c(C#N)cc2c(c1Cl)CCCC2Nc1ccc2[nH]ncc2c1 (centres unmarked) [HANT-269, 8-((1H-indazol-5-yl)amino)-4-chloro-3-ethoxy-5,6,7,8-tetrahydronaphthalene-2-carbonitrile] | 1 to 500
COc1ccc(C2CCCc3c2cc(C#N)c(OCCCl)c3Cl)cc1 (centres unmarked) [HANT-334] | 1 to 500
COc1ccc(C2CCCc3c2cc(C#N)c(OCCCl)c3Cl)cn1 (centres unmarked) [HANT-335] | 1 to 500
Oc1ccc(C2CCCc3c2cc(Cl)c(OCCCl)c3Cl)cc1 (centres unmarked) [HANT-336A, 4-(5,7-dichloro-6-(2-chloroethoxy)-1,2,3,4-tetrahydronaphthalen-1-yl)phenol] | 500 to 1000
Oc1ccc(C2CCCc3c2cc(Cl)c(OCCCl)c3Cl)cc1 (centres unmarked) [HANT-336B, 4-(5,7-dichloro-6-(2-chloroethoxy)-1,2,3,4-tetrahydronaphthalen-1-yl)phenol] | 1 to 500
N#Cc1cc2c(c(Cl)c1OCCCl)CCCC2c1ccc2c(c1)C(=O)NC2 (centres unmarked) [HANT-948] | 500 to 1000
Cn1nc(C2CCCc3c2cc(C#N)c(OCCCl)c3Cl)c2ccccc21 (centres unmarked) [HANT-949] | 1000 to 2000
Cn1cc2c(n1)CN(C1CCCc3c1cc(C#N)c(OCCCl)c3Cl)C2 (centres unmarked) [HANT-950, 4-Chloro-3-(2-chloroethoxy)-8-(2-methyl-2,6-dihydropyrrolo[3,4-c]pyrazol-5(4H)-yl)-5,6,7,8-t etrahydronaphthalene-2-carbonitrile] | 1000 to 2000
N#Cc1cc2c(c(Cl)c1OCCCl)CCCC2c1ccc2c(c1)C(=O)NC2=O (centres unmarked) [HANT-977] | 1 to 500
N#Cc1cc2c(c(Cl)c1OCCCl)CCCC2c1ccc2n[nH]c(=O)n2c1 (centres unmarked) [HANT-978] | 1 to 500
N#Cc1cc2c(c(Cl)c1OCCCl)CCCC2c1cc2c3c(cccc3c1)NC2=O (centres unmarked) [HANT-979, 4-Chloro-3-(2-chloroethoxy)-8-(2-oxo-1,2-dihydrobenzo[cd]indol-4-yl)-5,6,7,8-tetrahydronapht halene-2-carbonitrile] | 500 to 1000
CN1C(=O)c2ccc(C3CCCc4c3cc(C#N)c(OCCCl)c4Cl)cc2C1=O (centres unmarked) [HANT-982] | 1 to 500
CN1Cc2ccc(C3CCCc4c3cc(C#N)c(OCCCl)c4Cl)cc2C1=O (centres unmarked) [HANT-983] | > 2000

Reference: patent EP4678634A1, “ANDROGEN RECEPTOR MODULATORS AND USES THEREOF” (Haihe Biopharma Co., Ltd., priority 2023, dated 2024)
